Results: patent US8569336B2, “Compounds for the treatment of inflammatory disorders” (priority 2008, dated 2013)
Read-outs that look alike come from different tables or passages of the source.

Tests used:
[1] = system: TNF-α production from human whole blood; assay: Inhibition of TNF-α production from human whole blood (hWBA), LPS stimulated, ELISA; type: cell-based; details: Homo sapiens, TNF-α by ELISA, read-out: hWBA (IC50)
[2] = molecular target: T1, purified catalytic domain of recombinant human TACE (rhTACEc) (Homo sapiens, UniProt P78536, N452Q/S266A); assay: TACE kinetic assay: cleavage of internally quenched peptide substrate TNF-FRET 2 (Ki); type: biochemical; details: TNF-FRET 2 substrate
T1 construct: 6xHis (C); made in house; host or cells: baculovirus/Hi5 insect cells
T1 sequence (P78536 215-477 S266A/N452Q): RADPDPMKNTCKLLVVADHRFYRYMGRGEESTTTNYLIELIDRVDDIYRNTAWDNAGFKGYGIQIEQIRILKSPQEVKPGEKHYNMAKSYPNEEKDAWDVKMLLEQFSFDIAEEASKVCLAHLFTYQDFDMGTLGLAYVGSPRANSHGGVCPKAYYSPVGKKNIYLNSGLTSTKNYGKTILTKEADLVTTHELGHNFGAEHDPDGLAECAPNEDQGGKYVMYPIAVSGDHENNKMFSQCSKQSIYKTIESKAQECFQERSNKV

[3] = LPS-stimulated human whole blood
[4] = 3.5 h, human whole blood diluted 1:1, LPS stimulated, 3.5 h
[5] = human whole blood diluted 1:1, LPS stimulated

Row | Structure (SMILES) | IC50 [1, 3] [µM] | Ki ([2]; read-out: Ki) [nM] | IC50 [1, 4] [µM] | IC50 [1, 5] [µM] | Ki ([2]; Ki) [nM]
1 | Cn1cc(-c2ccc3c(c2)C(=O)N(C[C@@]2(c4cc5ncccc5o4)NC(=O)NC2=O)C3)cn1 [Compound 1742] | 3.72 | 3.63 | – | – | –
2 | COc1ccc2c(c1)C(=O)N(CC1([C@H]3C[C@H](c4ccccc4)C3)NC(=O)NC1=O)C2 (stereo partly drawn) [Compound 1915] | 100 | 9.99 | – | – | –
3 | COc1ccc2c(c1)C(=O)N(C[C@@]1(c3cc4cc(-c5c(OC(C)C)noc5C)cnc4o3)NC(=O)NC1=O)C2 [Compound 501] | 1.59 | 0.844 | – | – | –
4 | COc1ccc2c(c1F)C(=O)N(C[C@@]1(c3cc4nc(-c5cccnc5)c(F)cc4o3)NC(=O)NC1=O)C2 [Compound 1315] | 1.11 | 0.09 | – | – | –
5 | COc1ccc2c(c1)C(=O)N(C[C@@]1(c3cc4c(o3)CCN(C(=O)Nc3cccnc3)C4)NC(=O)NC1=O)C2 [Compound 321] | ≥ 1000 | 701 | – | – | –
6 | COc1ccc2c(c1)C(=O)N(C[C@@]1(c3cc4nc(-c5ccnc(N6CCNCC6)c5)ccc4o3)NC(=O)NC1=O)C2 [Compound 1720] | 0.224 | – | – | – | 0.31
7 | COc1ccc2c(c1)C(=O)N(C[C@@]1(c3cc4c(o3)CCN(C(N)=O)C4)NC(=O)NC1=O)C2 [Compound 318] | 0.646 | 5.62 | – | – | –
8 | COc1ccc2c(c1OC)C(=O)N(C[C@@]1(c3cc4nc(C)c(Br)cc4o3)NC(=O)NC1=O)C2 [Compound 1918] | 34.1 | 2.48 | – | – | –
9 | COc1ccc2c(c1F)C(=O)N(C[C@@]1(c3cc4cc([C@]5(C)C(=O)NC(=O)N5C)c(F)cc4o3)NC(=O)NC1=O)C2 [Compound 1317] | 0.234 | 0.47 | – | – | –
10 | COc1ccc2c(c1)C(=O)N(C[C@@]1(c3cc4nc(-c5c(C)n[nH]c5C)ccc4o3)NC(=O)NC1=O)C2 [Compound 2101] | – | 0.14 | 0.203 | – | –
11 | COc1ccc2c(c1)C(=O)N(CC1([C@H]3C[C@@H](c4ccccc4)C3)NC(=O)NC1=O)C2 (stereo partly drawn) [Compound 1914] | 100 | 26.1 | – | – | –
12 | COc1ccc2c(c1F)C(=O)N(C[C@@]1(c3cc4nc(-c5ccc(N(C)C)nc5)ccc4o3)NC(=O)NC1=O)C2 [Compound 1726] | > 10 | 1.49 | – | – | –
13 | COc1ccc2c(c1F)C(=O)N(C[C@@]1(c3cc4cnc(C)nc4o3)NC(=O)NC1=O)C2 [Compound 304] | 0.3 | 1.23 | – | – | –
14 | COc1ccc2c(c1)C(=O)N(C[C@@]1(c3cc4nc(N5CCCC5)ccc4o3)NC(=O)NC1=O)C2 [Compound 2106] | – | 0.422 | 0.669 | – | –
15 | COc1ccc2c(c1)C(=O)N(C[C@@]1(c3cc4cc(-c5cnn(C)c5)ncc4o3)NC(=O)NC1=O)C2 [Compound 306] | 0.658 | 0.661 | – | – | –
16 | COc1ccc2c(c1F)C(=O)N(C[C@@]1(c3ccc(-c4ccc(N)nc4)o3)NC(=O)NC1=O)C2 [Compound 310] | 0.244 | 0.0208 | – | – | –
17 | COc1ccc2c(c1F)C(=O)N(C[C@@]1(c3cc4nc(N5CCOCC5)c(F)cc4o3)NC(=O)NC1=O)C2 [Compound 1913] | 0.657 | – | – | – | 0.53
18 | COc1ccc2c(c1)C(=O)N(C[C@@]1(c3cc4c(NCc5ccccc5)ccnc4o3)NC(=O)NC1=O)C2 [Compound 2248] | – | – | 0.233 | – | 1.61
19 | COc1ccc2c(c1F)C(=O)N(C[C@@]1(c3cc4nc(N(c5cn[nH]c5)C5CCNCC5)ccc4o3)NC(=O)NC1=O)C2 [Compound 1724] | 0.185 | 1.31 | – | – | –
20 | CCNC(=O)OCc1cnc2cc([C@]3(CN4Cc5ccc(OC)cc5C4=O)NC(=O)NC3=O)oc2c1 [Compound 1944] | 2.25 | 0.69 | – | – | –
21 | COc1ccc2c(c1)C(=O)N(C[C@@]1(c3cc4nc(-c5nnn[nH]5)ccc4o3)NC(=O)NC1=O)C2 [Compound 2167] | – | – | 0.289 | – | 0.351
22 | COc1ccc2c(c1)C(=O)N(C[C@@]1(c3cc4cc(C(=O)NCCCC[C@H](NC(=O)CCCC[C@@H]5SCC6NC(=O)NC65)C(=O)O)c(F)cc4o3)NC(=O)NC1=O)C2 (stereo partly drawn) [Compound 1283] | – | 0.39 | 3.3 | – | –

The next lines start with results.

Row | IC50 [1, 3] [µM] | Ki ([2]; read-out: Ki) [nM] | IC50 [1, 4] [µM] | IC50 [1, 5] [µM] | Structure (SMILES) | Ki ([2]; Ki) [nM]
23 | – | 0.546 | 0.518 | – | COc1ccc2c(c1)C(=O)N(C[C@@]1(c3cc4cc(CO)ccc4o3)NC(=O)NC1=O)C2 [Compound 2178] | –
24 | – | 0.71 | – | 0.65 | CN(C)C1CCN(c2ccc3oc(C4(CN5CCc6ccsc6C5=O)NC(=O)NC4=O)cc3n2)CC1 (stereo not drawn) [Compound 2495] | –
25 | – | 1.25 | – | 2.25 | O=C1NC(=O)[C@](CN2CCc3ccsc3C2=O)(c2cc3ncccc3o2)N1 [Compound 2494] | –
26 | – | 1.08 | 0.509 | – | COc1ccc2c(c1)C(=O)N(C[C@@]1(c3cc4c[n+]([O-])ccc4o3)NC(=O)NC1=O)C2 [Compound 2259] | –
27 | – | 0.253 | 0.17 | – | CCNc1nnc(-c2ccc3cc([C@]4(CN5Cc6ccc(OC)cc6C5=O)NC(=O)NC4=O)oc3c2)o1 [Compound 2193] | –
28 | – | 0.586 | – | 0.609 | COc1ccc2c(c1)C(=O)N(C[C@@]1(c3cc4ncc(CO)cc4o3)NC(=O)NC1=O)C2 [Compound 2320] | –
29 | – | 0.59 | – | 0.546 | COc1ccc2c(c1)C(=O)N(C[C@@]1(c3cc4ncc(C(=NO)N5CCN(c6cnccn6)CC5)cc4o3)NC(=O)NC1=O)C2 [Compound 2469] | –
30 | – | 0.661 | 0.194 | – | COc1ccc2c(c1)C(=O)N(C[C@@]1(c3cc4nc(N5CCNCC5)ccc4o3)NC(=O)NC1=O)C2 [Compound 2126] | –
31 | – | 0.64 | – | 0.508 | COc1ccc2c(c1)C(=O)N(C[C@@]1(c3cc4ccc(C(=O)N[C@@H](C)CO)cc4o3)NC(=O)NC1=O)C2 [Compound 2417] | –
32 | – | 0.539 | 0.345 | – | COc1ccc2c(c1)C(=O)N(C[C@@]1(c3cc4cc(CN5CCNCC5)ccc4o3)NC(=O)NC1=O)C2 [Compound 2186] | –
33 | – | 0.4 | – | 0.328 | COc1ccc2c(c1)C(=O)N(C[C@@]1(c3cc4cc(/C=N/O)ccc4o3)NC(=O)NC1=O)C2 [Compound 2420] | –
34 | – | 0.467 | 0.115 | – | COc1ccc2c(c1)C(=O)N(C[C@@]1(c3cc4nc(N5CCCNC5=O)ccc4o3)NC(=O)NC1=O)C2 [Compound 2134] | –
35 | – | 0.523 | 0.11 | – | COc1ccc2c(c1)C(=O)N(C[C@@]1(c3cc4cc(-c5cc(N)n[nH]5)ccc4o3)NC(=O)NC1=O)C2 [Compound 2246] | –
36 | – | 0.33 | – | 1.87 | CCOC(=O)c1ccc2cc([C@]3(CN4Cc5ccc(OC)cc5C4=O)NC(=O)NC3=O)oc2c1 [Compound 2409] | –
37 | – | 0.099 | 0.143 | – | COc1ccc2c(c1)C(=O)N(C[C@@]1(c3cc4cc(NC(N)=O)ccc4o3)NC(=O)NC1=O)C2 [Compound 2221] | –
38 | – | 0.37 | – | 0.848 | COc1ccc2c(c1)C(=O)N(C[C@@]1(c3cc4cc(C#N)ccc4o3)NC(=O)NC1=O)C2 [Compound 2476] | –
39 | – | 0.437 | – | 0.47 | COc1ccc2c(c1)C(=O)N(C[C@@]1(c3cc4cc(C)ncc4o3)NC(=O)NC1=O)C2 [Compound 2302] | –
40 | – | 0.746 | 2.49 | – | COc1ccc2c(c1)C(=O)N(C[C@@]1(c3cc4cnc(-c5c(C)nn(C)c5C)cc4o3)NC(=O)NC1=O)C2 [Compound 2251] | –
41 | – | 0.762 | 1.13 | – | COc1ccc2c(c1)C(=O)N(C[C@@]1(c3cc4nc(Nc5c(C)cnn5C)ccc4o3)NC(=O)NC1=O)C2 [Compound 2111] | –
42 | – | 0.216 | 1.55 | – | COc1ccc2c(c1)C(=O)N(C[C@@]1(c3cc4cc(C5(C)NC(=O)NC5=O)cc(C)c4o3)NC(=O)NC1=O)C2 (stereo partly drawn) [Compound 2211] | –
